Experimental data: paper PMC9698730 (Molecules, 2022)
Several values for one entry are separate records, joined by “and”; a condition that tells them apart may be missing. Equal values may be shown once. Entries after “also recorded” stand apart in the source; their conditions may differ. Read-outs that look alike come from different tables or passages of the source.

Columns and labels:
[1] = test system: patients hospitalized for mild and moderate COVID-19; settings: human, in vivo; cited from earlier work
viral replication = settings: cited from earlier work
FL [2] = assay type: binding, SARS-CoV-2; settings: for Size (nm) Intensity / Size (nm) Volume: pH 7.9
RNA-FL complex = assay type: binding, SARS-CoV-2; settings: for competition with RNA / nucleic acids binding to FL: DLS, in words
Method: To further address whether the ligands may modify the oligomeric status of the FL protein, we performed dynamic light scattering experiments. […] We then tested whether ligand binding to FL could be competitive with nucleic acids binding.
(§1) The experiments were performed on a Malvern nanosizer apparatus. The temperature was set at 20 °C, and 10 scans with a duration of 10 s each were acquired in duplicate for each time and sample. The size distribution in the intensity of the scattered light was obtained using the Cumulants method from the instrumental software, yielding the hydrodynamic diameter. The N NTD concentration was in the range of 40–60 μM, the FL concentration was in the range of 1 to 10 µM in 20 mM Tris buffer at pH = 7.9 containing 100 mM NaCl. The melting experiments were performed at a heating rate of 1 °C/min over the range 30 °C to 65 °C in sealed disposable cuvettes. The apparent melting temperature, Tm, was determined by the first derivative of the melting curve.

FL [3] = assay type: binding
NTD wt [4] = target: T1, NTD wt (Severe acute respiratory syndrome coronavirus 2, UniProt P0DTC9); assay type: binding
DNA-FL complex = assay: Dynamic light scattering, competition with DNA binding to FL; design: species or system SARS-CoV-2; settings: for Size, Intensity: percentage in parentheses / Size, Volume: percentage in parentheses / Size (nm) Volume / Size (nm) Intensity: DNA + ligand, 4 µM, FL 4 µM; for Size (nm) Volume: without ligand 15.7 ± 1.2; for Size (nm) Intensity: without ligand 25.3 ± 3.1
Method: To further address whether the ligands may modify the oligomeric status of the FL protein, we performed dynamic light scattering experiments. FL (2 µM) presented a main peak at 12.0 ± 0.6 nm in volume (14 nm in intensity); the size of the complex decreased to 10.3 and 7.8 ± 0.3 nm upon addition of 2 µM and 6 µM enkephalin, respectively (Figure 6D). […] We then tested whether ligand binding to FL could be competitive with nucleic acids binding.
as §1

NTD wt [5] = target: T1, NTD wt; settings: cited from earlier work
SARS-CoV-2 = settings: cited from earlier work
[6] = test system: model of reconstituted lung epithelium; settings: cited from earlier work

Molecule: COc1ccc2c(c1)c(CC(=O)O)c(C)n2C(=O)c1ccc(Cl)cc1 [Indomethacin, indomethacin]
- patient recovery [1]: helped the patients to recover
- effect on viral replication (viral replication; ref [17],[18],[34],[35]): decrease viral replication
- Size, Intensity: percentage in parentheses (FL [2]): 11.0 ± 0.4 (30%) 6.7 ± 0.3 (60%)
- Size, Volume: percentage in parentheses (FL [2]): 10.3 ± 0.5 (100%) 6.3 ± 0.4 (96%)
- effect on size (oligomeric status) of FL (FL [2]): a larger decrease
- Size (nm) Intensity (FL [2]): 11.0 ± 0.4 (30%) 6.7 ± 0.3 (60%) nm
- Size (nm) Volume (FL [2]): 10.3 ± 0.5 (100%) 6.3 ± 0.4 (96%) nm
- competition with RNA / nucleic acids binding to FL (RNA-FL complex): consistent with a competition

Molecule: Dihydrofolate [DHF]
- effect on viral replication (viral replication; ref [17],[18],[34],[35]): decrease viral replication
- effect on viral replication (viral replication; ref [35]): reduction of viral replication
- binding to FL by SPR, in words (FL [3]): binding of DHF to the full-length protein was smaller
- competition with RNA / nucleic acids binding to FL (RNA-FL complex): consistent with a competition
- Kd (NTD wt [4]; SPR, NTD, ligand range 0.3–10.0 µM, 20 mM HEPES, 100 mM NaCl, 0.05% Tween): ~1000 nM and 1000 nM

Molecule: RPKPQQF-OH [Substance P (1-7), Substance P (1-7) RPKPQQF-OH]
- binding to FL by SPR, in words (FL [3]): bound the N FL protein as measured by SPR; also recorded: observed
- Size, Intensity: percentage in parentheses (FL [2]): 10.3 ± 0.6 (50%) 8.0 ± 1.0 (76%)
- Size, Volume: percentage in parentheses (FL [2]): 9.5 ± 0.6 (98%) 7.2 ± 1.1 (99%)
- effect on size (oligomeric status) of FL (FL [2]): a larger decrease
- Size (nm) Intensity (FL [2]): 10.3 ± 0.6 (50%) 8.0 ± 1.0 (76%) nm
- Size (nm) Volume (FL [2]): 9.5 ± 0.6 (98%) 7.2 ± 1.1 (99%) nm
- Size, Intensity: percentage in parentheses (DNA-FL complex): 70%
- Size, Volume: percentage in parentheses (DNA-FL complex): 91%
- Size (nm) Volume (DNA-FL complex): 10.1 ± 0.6 nm
- Size (nm) Intensity (DNA-FL complex): 13.8 ± 0.6 nm
- competition with RNA / nucleic acids binding to FL (RNA-FL complex): competitive with nucleic acids binding to FL; also recorded: consistent with a competition
- Size, Intensity: percentage in parentheses (RNA-FL complex; RNA + ligand, 4 µM, FL 4 µM): 75%
- Size, Volume: percentage in parentheses (RNA-FL complex; RNA + ligand, 4 µM, FL 4 µM): 97%
- Size (nm) Volume (RNA-FL complex; RNA + ligand, 4 µM, FL 4 µM, without ligand 15.1 ± 1.1): 11.3 ± 0.6 nm
- Size (nm) Intensity (RNA-FL complex; RNA + ligand, 4 µM, FL 4 µM, without ligand 21.5 ± 2.0): 16.1 ± 0.6 nm
- binding to NTD by SPR, in words (NTD wt [4]): observed

Molecule: Leu-enkephalin
- Size, Intensity: percentage in parentheses (FL [2]): 12.6 ± 0.6 (31%) 8.7 ± 0.2 (40%)
- Size, Volume: percentage in parentheses (FL [2]): 11.3 ± 0.6 (96%) 8.0 ± 0.3 (100%)
- effect on size (oligomeric status) of FL (FL [2]): decreased its size as compared to the size of N alone
- Size (nm) Intensity (FL [2]): 12.6 ± 0.6 (31%) 8.7 ± 0.2 (40%) nm
- Size (nm) Volume (FL [2]): 11.3 ± 0.6 (96%) 8.0 ± 0.3 (100%) nm
- effect on size of N-DNA complex, in words (DNA-FL complex; DLS, Figure 6E): the size of the N-DNA complex was reduced
- Size, Intensity: percentage in parentheses (DNA-FL complex): 89%
- Size, Volume: percentage in parentheses (DNA-FL complex): 99%
- Size (nm) Volume (DNA-FL complex): 9.0 ± 1.7 nm
- Size (nm) Intensity (DNA-FL complex): 10.5 ± 1.2 nm
- competition with RNA / nucleic acids binding to FL (RNA-FL complex): competitive with nucleic acids binding to FL; also recorded: consistent with a competition

Molecule: tetrahydrofolate [THF]
- effect on viral replication (viral replication; ref [35]): reduction of viral replication

Molecule: COc1ccc2cc([C@H](C)C(=O)O)ccc2c1 [Naproxen, naproxen]
- binding to N-terminal domain in vitro (NTD wt [5]): bound to SARS-CoV-2 N-terminal domain (NTD) in vitro
- viral load of infected cells (SARS-CoV-2): reduced the viral load of infected cells
- effect on viral replication (viral replication): decrease viral replication
- Size, Intensity: percentage in parentheses (FL [2]): 12.2 ± 0.5 (40%) 8.7 ± 0.3 (60%)
- Size, Volume: percentage in parentheses (FL [2]): 11.3 ± 0.4 (99%) 8.9 ± 0.3 (96%)
- effect on size (oligomeric status) of FL (FL [2]): the same trend was observed
- Size (nm) Intensity (FL [2]): 12.2 ± 0.5 (40%) 8.7 ± 0.3 (60%) nm
- Size (nm) Volume (FL [2]): 11.3 ± 0.4 (99%) 8.9 ± 0.3 (96%) nm
- protection of lung cells against viral injury [6]: protected lung cells against viral injury
- replication and inflammation in reconstituted lung epithelium [6]: inhibited replication and reduced inflammation

Molecule: Hemin
- effect on viral replication (viral replication; hemin binding to N, ref [32]): reduce viral replication
- effect on viral replication (viral replication; ref [17],[18],[34],[35]): decrease viral replication
